14 compounds from PubChem BioAssay (NCI) can be followed below.

Where “and” joins values, the source holds several entries; their conditions need not be identical. Equal entries are not always repeated.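 Values below derive from 48-hour exposures of cells grown in 96-well plates, with endpoints linearly interpolated between the two concentrations bracketing the appropriate inhibition level. GI50 = concentration required for 50% inhibition of growth. TGI marks complete inhibition of growth.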 Bounds are passed on as bounds.

Some test systems named below: ACHN renal; CCRF-CEM leukemia; MCF7 breast; OVCAR-8 ovarian; RXF 393 renal; SR leukemia; U251 CNS; UACC-257 melanoma; UACC-62 melanoma; SF-295 CNS.
Common to all, as to test: NCI anticancer screen, dose series, 48 h

Take `C/C=C/C=C/C1=NN(c2cccc(S(=O)(=O)O)c2)C2(C1)SCC(=O)N2c1nc2ccccc2s1` (stereo unspecified): the TGI is greater than 100 µM in the assay on ACHN renal; 77.7 µM in the assay with CCRF-CEM leukemia; greater than 100 µM in the assay with MCF7 breast; greater than 100 µM in the assay with OVCAR-8 ovarian; greater than 100 µM with RXF 393 renal; 87.6 µM in the assay on SR leukemia. Further, the TGI with U251 CNS, with UACC-257 melanoma and with UACC-62 melanoma was greater than 100 µM throughout.
For the compound `Cc1cc(NC2=NCCO2)c2c(c1C)CCCC2`, the TGI is greater than 100 µM in the assay with ACHN renal; greater than 100 µM in the assay on CCRF-CEM leukemia; 31 µM with MCF7 breast; greater than 100 µM in the assay on OVCAR-8 ovarian; greater than 100 µM in the assay on RXF 393 renal; 31.8 µM with SF-295 CNS. For the same compound, the TGI with SR leukemia came to 75.9 µM; with U251 CNS it was 63.1 µM; in the assay on UACC-257 melanoma, 39.1 µM; with UACC-62 melanoma, 41.1 µM.
Regarding `ClCc1c(-c2ccccc2)nn(-c2ccccc2)c1CCl`, the TGI with MCF7 breast turned out to be 23.5 µM; in the assay on OVCAR-8 ovarian, 30.8 µM; with RXF 393 renal it was 28.3 µM; with SF-295 CNS it was 32.8 µM; in the assay with SR leukemia it was 33.4 µM; in the assay on U251 CNS it was 27.6 µM. Also, the TGI in the assay on UACC-257 melanoma amounted to 34.1 µM; in the assay on UACC-62 melanoma it was 21.4 µM.
`CN(C)CCCNC(=O)c1cc(NC(=O)c2cc(NC(=O)c3cc(NC(=O)CCCn4ccc(CO)c4CO)cn3C)cn2C)cn1C`: the TGI in the assay with ACHN renal was greater than 100 µM; in the assay on CCRF-CEM leukemia, greater than 100 µM; with MCF7 breast, greater than 100 µM; in the assay with RXF 393 renal, 6.24 µM; in the assay on SR leukemia, greater than 100 µM; in the assay on U251 CNS, greater than 100 µM. In the assay on UACC-62 melanoma, the TGI is 37.9 µM.
As for `Cc1ccc(S(=O)(=O)n2cc(-c3cnc(N)c(Br)n3)c3ccccc32)cc1`, the TGI in the assay on ACHN renal was greater than 89.4 µM; in the assay on MCF7 breast, greater than 45.7 µM; in the assay on OVCAR-8 ovarian it was greater than 100 µM; in the assay on RXF 393 renal, 5.23 µM; with SF-295 CNS it was greater than 100 µM; in the assay with SR leukemia, 10.2 µM. Also, the TGI with U251 CNS is greater than 77.5 µM; in the assay with UACC-257 melanoma, greater than 100 µM; with UACC-62 melanoma, greater than 57.2 µM.
For `CC(=O)NC1C(OCc2ccccc2)OC(CO)C(O)C1OCC(=O)NC(C)C(=O)NC(CCC(=O)NCCCCCC(=O)Nc1ccc2c(c1)CN1C(=O)c3ccccc3C1=N2)C(N)=O` (stereo unspecified), the TGI in the assay with ACHN renal, in the assay on CCRF-CEM leukemia, with MCF7 breast, with OVCAR-8 ovarian, with RXF 393 renal and in the assay on SF-295 CNS was greater than 100 µM throughout. In addition, the TGI in the assay on SR leukemia is 42.5 µM; in the assay with U251 CNS, greater than 100 µM; with UACC-257 melanoma it was greater than 100 µM; in the assay on UACC-62 melanoma, greater than 100 µM.
With `C=CCN1CC2CN=NC2(C#N)C1` (stereo unspecified), the TGI in the assay with ACHN renal, in the assay with CCRF-CEM leukemia, with MCF7 breast, with OVCAR-8 ovarian, in the assay with RXF 393 renal and with SF-295 CNS was greater than 100 µM in each case. For the same compound, the TGI in the assay with SR leukemia, in the assay on U251 CNS, in the assay with UACC-257 melanoma and in the assay with UACC-62 melanoma was greater than 100 µM each time.
For the compound `Cc1cc(=O)c2c(O)c3c(O)cc(O)c4c5c(O)cc(O)c6c(O)c7c(=O)cc(C)c8c1c2c(c34)c(c65)c78`, the TGI in the assay with ACHN renal is greater than 100 µM; with CCRF-CEM leukemia, greater than 100 µM; with MCF7 breast it was > 100 µM and 36.3 µM; in the assay on OVCAR-8 ovarian, greater than 100 µM; in the assay on RXF 393 renal, 88.8 µM; in the assay on SF-295 CNS it was > 100 µM and 37.6 µM. The TGI in the assay with SR leukemia, in the assay on U251 CNS, with UACC-257 melanoma and in the assay on UACC-62 melanoma was greater than 100 µM each time. Moreover, the GI50 in the assay on CCRF-CEM leukemia was > 100 µM and 22.2 µM; with MCF7 breast it was > 100 µM and 16.6 µM; in the assay with SF-295 CNS it was > 100 µM and 16.6 µM; in the assay with U251 CNS, > 100 µM and 37.3 µM; in the assay on UACC-257 melanoma, greater than 100 µM; with UACC-62 melanoma, greater than 100 µM.
Consider `Cc1ccccc1NC(=S)N=Nc1c(O)[nH]c2ccccc12`, for which the TGI with ACHN renal, in the assay with CCRF-CEM leukemia, with MCF7 breast, with OVCAR-8 ovarian, with RXF 393 renal and in the assay with SF-295 CNS was greater than 100 µM in each case. The TGI with SR leukemia, in the assay on U251 CNS, in the assay on UACC-257 melanoma and in the assay on UACC-62 melanoma was greater than 100 µM each time.
With `C=CCC1NCCC2=C1C(S(=O)(=O)c1ccc(C)cc1)c1ccccc12` (stereo unspecified), the TGI is 24.3 µM in the assay on ACHN renal; 28.6 µM in the assay with CCRF-CEM leukemia; 22 µM in the assay with MCF7 breast; 30.5 µM in the assay on OVCAR-8 ovarian; 17.6 µM in the assay with RXF 393 renal; 27.1 µM with SF-295 CNS. The TGI in the assay on SR leukemia is 38.4 µM; in the assay with U251 CNS, 24 µM; in the assay with UACC-257 melanoma, greater than 53.4 µM; with UACC-62 melanoma it was 24.6 µM.
In the case of `CC1NOC(NS(=O)(=O)c2ccc(N=Nc3c(O)c(C(=O)O)cc4ccccc34)cc2)C1C` (stereo unspecified), the TGI with ACHN renal, in the assay with CCRF-CEM leukemia, in the assay with MCF7 breast, in the assay with OVCAR-8 ovarian, with RXF 393 renal and in the assay with SF-295 CNS was greater than 100 µM each time. Moreover, the TGI in the assay with SR leukemia, in the assay with U251 CNS, with UACC-257 melanoma and in the assay with UACC-62 melanoma was greater than 100 µM throughout.
For the compound `c1ccc(C(CCN2CCCC2)c2ccccn2)cc1` (stereo unspecified), the TGI with ACHN renal, in the assay with MCF7 breast, with OVCAR-8 ovarian, in the assay with RXF 393 renal, in the assay with SF-295 CNS and in the assay on SR leukemia was greater than 100 µM each time. Further, the TGI with U251 CNS, in the assay on UACC-257 melanoma and with UACC-62 melanoma was greater than 100 µM in each case.
For `O=C(NCCO)c1c(O)c2ccccc2[nH]c1=O`, the TGI in the assay on ACHN renal, in the assay on CCRF-CEM leukemia, in the assay with MCF7 breast, in the assay on OVCAR-8 ovarian, with RXF 393 renal and in the assay with SF-295 CNS was greater than 100 µM each time. For the same compound, the TGI in the assay with SR leukemia, in the assay with U251 CNS and in the assay on UACC-257 melanoma was greater than 100 µM in each case.
In the case of `COC(=O)C[C@H](COCc1ccccc1)NC(=O)C[C@H](COCc1ccccc1)NC(=O)C[C@H](COCc1ccccc1)NC(=O)OC(C)(C)C`, the TGI in the assay on ACHN renal is greater than 100 µM; in the assay with CCRF-CEM leukemia, greater than 100 µM; with MCF7 breast it was 28.9 µM; with OVCAR-8 ovarian it was greater than 100 µM; with RXF 393 renal, 72 µM; with SF-295 CNS, greater than 100 µM. Also, the TGI with SR leukemia, in the assay on U251 CNS and in the assay on UACC-62 melanoma was greater than 100 µM each time.
